Experimental data taken from patent US20230270104A1, “USE OF ERYTHRITOL COMPOSITIONS AS MAMMAL-SAFE INSECTICIDES” (Drexel University, priority 2020, published 2023).
“Also recorded” adds a separate entry of the source. Read-outs that look alike come from different tables or passages of the source.

Tests used:
Drosophila melanogaster [1] = experiment: Longevity of adult flies raised on food containing sweeteners; type: in vivo; details: repeat study, blue-dyed food with 0.0238 g/ml sweetener, FIG. 3
Method: All animals were cultured at 25° C., kept at 50-60% humidity, and were raised under a standard 12:12 light dark cycle. For each experimental treatment, n=30 flies were tested in groups of 10 per tube, and three tubes per treatment. Tubes were kept on their side to minimize subject becoming mired in the food. Foods were replaced twice a week. The total number of fruit flies used for these experiments was 780, with 300 used for two initial trials testing mortality among store-brand sweeteners, 210 used for repeating this with blue dye and pure erythritol, 120 for choice trials and 150 for concentration trials.
Standard Drosophila food for larval culturing consisted of water, cornmeal, yeast, molasses, and agar, as previously described (Chakraborty, et al., 2011, PLoS ONE 6: e20799). […] The addition of cornmeal and yeast assured the flies still received sufficient carbohydrates and protein in addition to any effects of the treatment additives.
Drosophila food was combined with an equal weight/volume (0.0238 g/ml) of one non-nutritive sweetener (TRUVIA, EQUAL, SPLENDA, SWEET'NLOW, or PUREVIA) or a control nutritive sweetener (controls: sucrose or corn syrup). Wild type (Canton S) larvae were initially raised on the standard food, and 0-12 hour old adult flies were transferred to foods containing one non-nutritive sweetener or a control treatment. […] The number of dead flies were scored daily.

Drosophila melanogaster [2] = experiment: Erythritol concentration trials, fly longevity; type: in vivo
Method: Standard fly foods were prepared as previously described, and then were treated with 2M, 1M, 0.5M and 0.1M concentrations of erythritol, using 0.5M sucrose as control. 0 to 24 hour-old Drosophila were placed on these foods and mortality was recorded daily for 35 days as above. Analyses were conducted with SPSS software v. 20 (IBM corporation 2011). Fly longevity data were analyzed using survival analysis with right-hand censoring of subjects that lived to the end of the study or were lost for reasons other than death. Test were run for differences in survival distributions [Pr(flies alive) versus insect age] using the log-rank (Mantel-Cox) test to make all pairwise comparisons among treatments within each experiment.

Drosophila melanogaster [3] = experiment: Two-way food choice experiments, fly longevity; type: in vivo; details: FIG. 5
Method: Foods containing 2 M erythritol, 1M erythritol and 1M sucrose were prepared for paired presentations in open choice tests. In each treatment one food type contained 0.05% brilliant blue FCF (Fisher 50-727-25). The blue dye allowed visual confirmation of feeding on the dyed food in the pair. The flies were presented with access to two food choices by using a modified cotton stopper with approximately a 1.5 cm diameter hole to connect each pair of food tubes.
The final choice treatment was between blue 2M erythritol food and non-blue 1M sucrose food (this treatment provides a comparison with the 1M erythritol/1M erythritol treatment as a test of dilution of toxicity by alternative food sources; blue guts would confirm erythritol was being consumed in the presence of sucrose). The number of flies with visible blue gut contents and mortality daily were recorded for 30 days.
Analyses were conducted with SPSS software v. 20 (IBM corporation 2011). Fly longevity data were analyzed using survival analysis with right-hand censoring of subjects that lived to the end of the study or were lost for reasons other than death. Test were run for differences in survival distributions [Pr(flies alive) versus insect age] using the log-rank (Mantel-Cox) test to make all pairwise comparisons among treatments within each experiment.

fruit flies [4] = experiment: Comparison of erythritol with other human-safe sweet alcohols, fly longevity; type: in vivo, Drosophila melanogaster; details: 17 days; for longevity, erythritol treatment versus the other treatments: FIG. 6
Method: An experiment was conducted to compare the effectiveness of erythritol with other human-safe sweet alcohols: D-mannitol, maltitol, sucrose, and xylitol. The concentration of all sweet alcohols were 1M.
Flies were raised for 17 days on standard fly food that contained 1 M concentrations of each sweetener treatment. Death of flies was recorded daily as before; each treatment was replicated on three vials of 10 flies each for 30 subjects/treatment. Differences in longevity were analyzed using the Kaplan-Meier survival analysis log rank test, making all pairwise comparisons among treatments.

R. flavipes workers = type: in vivo, Reticulitermes flavipes
Method: Termites used in the survival and choice experiments were collected from three field colonies in Scotland Run Park (39.66° N, 75.05° W) in Clayton, N.J. between April and May 2019. After collection, colonies were maintained in plastic containers with soil and wood from the collection site as a substrate in laboratory conditions (20.8±0.9° C., 49±7% RH). Termites used in the consumption experiment were collected from a single field colony at Cobb's Creek Park (39.94° N, 75.24° W) in Philadelphia, Pa. during September of 2018. Workers were removed from the log and housed within 24 h of collection in 9 cm diameter petri dishes containing damp paper towel as a food source. Dishes were placed in an incubator at 26° C. (relative humidity varied between 40 and 60% across trials, but was consistent among all treatments within each trial). Each petri dish contained 10 workers. Termites used in all experiments measured 3-4 mm in length.
For the survival experiment, unbleached, brown paper towels (12 cm×24 cm, cat no. 01801, Kimberly-Clark Corporation, Neenah, Wis.), were completely submerged for 15 s in solution of distilled water, erythritol (100% purity, NOW foods, Bloomingdale, Ill.) of the below-specified concentrations, and 0.05% Brilliant Blue R-250 dye (cat. no 27816, Sigma-Aldrich, St. Louis, Mo.). The erythritol concentrations used were: 0 M (control), 0.25 M, 0.5 M, 0.75 M, 1.0 M, and 1.25 M. The treated paper towels were removed from solution and allowed to dry horizontally on racks before being cut into squares with an area of 144 cm^2. Papers were thereafter stored dry at room temperature in sealed containers.
Prior to the beginning of the experiment, termites were allowed to acclimate for 3 d to the petri dishes, in order to control for any death due to injury incurred during movement to the petri dishes; this was called the pretrial period. At the beginning of the pretrial period, termites used in the survival experiment were transferred from sections of natural nest kept in laboratory rearing boxes to 9 cm diameter plastic petri dishes lined with brown, unbleached paper towel (12 cm×24 cm) not treated with erythritol. The paper towel was rehydrated with 1 ml of distilled water. Each dish contained 10 workers. After the third (final) day of the pretrial period, dishes were checked for dead termites, assumed to be dead due to injury, and dead termites were replaced with live individuals from a petri dish of extra termites kept in similar conditions.
Following the pretrial period, the experiment was set up: pretrial paper towels were removed and replaced with treated paper towels of the correct erythritol treatment concentration; these were rehydrated with 750 μL of distilled water. Six treatment groups (0 M, 0.25 M, 0.5 M, 0.75 M, 1.0 M, 1.25 M erythritol) were used per colony (n=3 colonies), with three dishes per treatment, each containing 10 termite workers (n=30 workers/treatment/colony, n=540 total workers). Termite mortality was recorded every 24 h for 8 d.
Analyses were performed using SPSS v. 24 (IBM corp. 2016) and. Sigmaplot v.12.5 (Systat Software 2013) software. Differences in survival distributions across concentrations for all colonies, within the colonies, and across colonies were tested using pairwise log-rank Mantel Cox tests in SPSS, with subjects living to the end of the trial or lost to reasons other than death (e.g., escaped or injured) included in the analysis as right-censored values. Mean percent mortality was calculated for each concentration across colonies at 72 and 96 h and a three parameter, best-fit sigmoid curve was fitted to the data in Sigmaplot to assess LC at these time points.

fruit flies [5] = details: 0.5 M erythritol food, previous work; cited from earlier work
[6] = 1 M sweetener in standard fly food

## OC[C@@H](O)[C@@H](O)CO [erythritol, (2R,3S)-butane-1,2,3,4-tetraol]
Drosophila melanogaster [1]
  longevity compared to PUREVIA, EQUAL, sucrose and corn syrup: significant decrease in longevity
Drosophila melanogaster [2]; 0.1M erythritol in food, observations terminated at 35 days
  longevity compared to control food: no significant difference in longevity
Drosophila melanogaster [2]; 0.1M, 0.5M, 1.0M and 2.0M in food, 35 days, FIG. 4
  longevity with increasing erythritol concentration: significant decrease in longevity; also recorded: dose-dependent reduction in longevity
Drosophila melanogaster [2]; 0.5M erythritol in food
  longevity compared to control food containing 0.5M sucrose: significant reductions in longevity
Drosophila melanogaster [2]; 1M erythritol in food
  longevity compared to control food containing 0.5M sucrose: significant reductions in longevity
Drosophila melanogaster [2]; 2M erythritol in food
  longevity compared to all other treatments: significant and severe effect on longevity
Drosophila melanogaster [3]; choice between 1M sucrose and 1M erythritol
  longevity relative to sucrose:sucrose choice: significant decrease in longevity; also recorded: significantly decreased longevity
Drosophila melanogaster [3]; choice between 1M sucrose and 2M erythritol
  longevity relative to sucrose:sucrose choice: significant decrease in longevity; also recorded: significantly reduced
Fruit flies [4]; 1 M in standard fly food
  toxicity to fruit flies upon ingestion: toxic to fruit flies upon ingestion
Fruit flies [4]; [6]
  mean longevity: 4.7 ± 0.15 days
  longevity, erythritol treatment versus the other treatments: significantly lower; also recorded: significantly shorter longevity
R. flavipes workers; 0.25 M to 0.5 M
  reduction in mean longevity: 1.74 days
R. flavipes workers; 0.5-0.75 M
  reduction in mean longevity: 0.23 days
R. flavipes workers; 0.75-1.0 M
  reduction in mean longevity: 0.26 days
R. flavipes workers; 1.0-1.25 M
  reduction in mean longevity: 0.14 days
R. flavipes workers; R. flavipes workers, 8 d
  concentration at which significant effects on longevity start: 0.25 M
R. flavipes workers; concentration increased from 0 M to 0.25 M, FIG. 10
  reduction in mean longevity: 3.77 days
R. flavipes workers; termites, 0.5 M erythritol filter papers
  time of exposure to reach 50% mortality: ≤ 2 days
Fruit flies [5]
  time of exposure to reach 50% mortality: 20 days

## OC[C@H]1O[C@@](CO)(O[C@H]2O[C@H](CO)[C@@H](O)[C@H](O)[C@H]2O)[C@@H](O)[C@@H]1O [sucrose]
Fruit flies [4]; [6]
  longevity, erythritol treatment versus the other treatments: significantly greater longevity than erythritol-fed flies

## OC[C@@H](O)[C@@H](O)[C@H](O)[C@H](O)CO [D-mannitol]
Fruit flies [4]; [6]
  longevity compared to sucrose (sugar) control: did not differ from sugar control; also recorded: slightly but significantly reduced longevity; also recorded: almost insignificant insecticidal effect
  longevity, erythritol treatment versus the other treatments: significantly greater longevity than erythritol-fed flies

## OC[C@@H](O)[C@H](O)[C@@H](O)CO [xylitol]
Fruit flies [4]; [6]
  longevity compared to sucrose (sugar) control: did not differ from sugar control; also recorded: did not differ from the control; also recorded: not effective at reducing fly longevity
  longevity, erythritol treatment versus the other treatments: significantly greater longevity than erythritol-fed flies

## OC[C@@H](O)[C@@H](O[C@H]1O[C@H](CO)[C@@H](O)[C@H](O)[C@H]1O)[C@H](O)[C@@H](O)CO [maltitol]
Fruit flies [4]; [6]
  longevity compared to sucrose (sugar) control: did not differ from sugar control; also recorded: did not differ from the control; also recorded: not effective at reducing fly longevity
  longevity, erythritol treatment versus the other treatments: significantly greater longevity than erythritol-fed flies
